# Where two headings read alike, the source gives them in different places.
# Assays:
# [1] = tested on: LPS-stimulated PBMCs; conditions: cited from earlier work
# [2] = tested on: LPS-stimulated whole blood; experiment: Ex vivo LPS-stimulated whole blood cytokine/chemokine production (TruCulture) in dosed subjects; set-up: species or system human (healthy volunteers)
# Procedure: Briefly, blood (1 mL) was drawn into the LPS-containing TruCulture tubes. The tubes were placed in a 37 °C block thermostat for 24 ± 1 h and then frozen at −70 °C. Media mixed with plasma were analyzed for TNF and other cytokine/chemokine levels. TNF inhibition in ex vivo LPS-stimulated blood was measured as a percentage change in TNF levels from baseline. Percentage change in other cytokines and chemokines in the ex vivo stimulation assay was also measured with respect to their baseline levels.
# [3] = tested on: THP-1 cells; experiment: In vitro tachyphylaxis model: daily treatment of THP-1 cells, LPS-stimulated TNF; conditions: up to 14 days, 0.1 or 1 μM CC-99677 or 1 μM p38 inhibitors
# [4] = Peripheral blood leukocyte and subtype counts in MAD study; conditions: 150 mg, pre-dose baseline through 14-day dosing (n = 5)
# [5] = Plasma pharmacokinetics in MAD study (LC-MS/MS); assay type: in vivo, human (healthy volunteers); conditions: for Cmax: human, plasma
# Procedure: PK parameters were calculated via non-compartmental methodology using Phoenix version 7 or higher (Princeton, NJ).
# [6] = tested on: TNF, IL-6, and IL-1β transcripts; experiment: Cytokine mRNA decay in LPS-stimulated macrophages with actinomycin D; assay type: cell-based, human; conditions: 1 μM CC-99677 with 10 μg/mL actinomycin D, normalized to GAPDH
# Excerpt: After each time point, macrophages were washed with PBS and lysed with RLT Plus Lysis Buffer (Qiagen, Germantown, MD). RNA was isolated using the QiaCube, followed by cDNA preparation using Superscript IV enzyme mix (Invitrogen, Thermo Fisher, Waltham, MA).
# [7] = tested on: LPS-stimulated PBMCs; experiment: Cytokine production in LPS-stimulated PBMCs; assay type: cell-based, human; conditions: 0.3, 1, and 3 μM
# [8] = 150-mg dose level cohort, day 5
# [9] = continuous dosing at 120 and 150 mg
structure (smiles),measurement,setting,value
CCOCc1cnc(Cl)nc1Oc1ccc2c(ccc3sc4c(c32)NC[C@@H](C)NC4=O)n1 [CC-99677],"Inflammatory cytokine production including TNF, IL-6, and GM-CSF",[1]; LPS-stimulated healthy donor PBMCs,inhibits inflammatory cytokine production
same,IL-1β inhibition in PBMCs after LPS stimulation,[1]; PBMCs,no inhibition of IL-1β was observed
same,Onset of reduction of TNF production,"[2]; 60-, 120-, and 150-mg dose cohorts",reduced as early as day 2
same,Maximal TNF inhibition (percentage change from baseline),[2]; 150-mg dose cohort,70%
same,TNF inhibition maintained during the dosing period,"[2]; 150-mg dose cohort, 14 days",approximately 70%
same,Maximal inhibition of IL-6,[2]; [8],50%
same,Maximal inhibition of MIP-1α,[2]; [8],50%
same,"TNF inhibition, ex vivo LPS-stimulated blood",[2]; all doses > 10 mg,"inhibited TNF at all doses > 10 mg, and this inhibition was sustained until day 14"
same,MIP-1α production,[2]; [9],inhibited with continuous dosing
same,MIP-1β production,[2]; [9],inhibited with continuous dosing
same,LPS-stimulated TNF production under continued daily treatment,[3],suppressed TNF production throughout the treatment period
same,"Mean WBC, lymphocyte, monocyte, and neutrophil counts",[4],comparable to placebo
same,Dose proportionality of concentration and exposure,[5]; 10 to 150 mg once daily over 14 days,"linear, dose-proportional increase in concentration and exposure"
same,Day-to-day plasma accumulation,"[5]; all 5 dose levels, minimal detectable plasma CC-99677 > 24 h after dosing",limited to no day-to-day plasma accumulation
same,Cmax,"[5]; oral, 150-mg dose level, read-out: Geometric mean Cmax expressed as molar concentration",~800 nM
same,Cmax,"[5]; day 1, 10 mg oral, read-out: Geometric mean peak concentration (Cmax, CV%)",20.5 ng/mL
same,Cmax,"[5]; day 1, 30 mg oral, read-out: Geometric mean peak concentration (Cmax, CV%)",63.4 ng/mL
same,Cmax,"[5]; day 1, 60 mg oral, read-out: Geometric mean peak concentration (Cmax, CV%)",150 ng/mL
same,Cmax,"[5]; day 1, 120 mg oral, read-out: Geometric mean peak concentration (Cmax, CV%)",269 ng/mL
same,Cmax,"[5]; day 1, 150 mg oral, read-out: Geometric mean peak concentration (Cmax, CV%)",257 ng/mL
same,"mRNA decay of TNF, IL-6, and IL-1β transcripts",[6],significantly greater mRNA decay compared with actinomycin D alone
same,GM-CSF production,[7]; PBMCs from AS patients and healthy volunteers,inhibited GM-CSF in PBMCs from AS patients to similar levels as those seen in healthy volunteers
same,TNF production,"[7]; PBMCs from AS patients, 1 h pretreatment, LPS 50 ng/mL",concentration-dependent inhibition of TNF production

# From paper PMC9386913 (Arthritis Research & Therapy, 2022)
